{"source": "patent EP4803087A1", "about": "“METHOD FOR PRODUCING LIPOSOME COMPOSITION, AND LIPOSOME COMPOSITION” (FUJIFILM Corporation, priority 2023, dated 2025)", "key": {"[1]": {"test": "Dissolution of gemcitabine hydrochloride in the loading tank at production scale (visual confirmation)", "type": "physicochemical", "parameters": "time after which complete dissolution could not be confirmed: dose or concentration left out as unconfirmed", "settings": "jacket 56°C", "description": "In order to prevent the powder of gemcitabine hydrochloride having high pharmacological activity from being exposed to the operator, the following work was performed in an isolator that could completely isolate the work from the outside. […] In this case, the extension tube was closed by a pinch valve. 1,452 g of water for injection at room temperature was put into the plastic bag to wash the burette, and gemcitabine hydrochloride was dispersed. A tube extended from a sealed tank (hereinafter, a loading tank) made of SUS316L with a temperature control jacket installed outside the isolator and the plastic bag was connected, and the gemcitabine hydrochloride aqueous dispersion liquid was put into the loading tank. A solution consisting of 17.0 g of disodium hydrogen phosphate dihydrate, 2.7 g of sodium dihydrogen phosphate dihydrate, and 1,106.6 g of water for injection was put into the loading tank from the plastic bag to wash out the gemcitabine hydrochloride remaining in the plastic bag, the extension tube, and the like. By cutting the extension tube while pinching and crimping the extension tube, the gemcitabine hydrochloride of the highly pharmaceutically active substance could be safely put into the loading tank without scattering from the isolator or the loading tank. […]"}, "[2]": {"test": "Measurement of saturated solubility of gemcitabine hydrochloride (HPLC, 272 nm)", "type": "physicochemical", "settings": "55 °C, aqueous buffer, thermodynamic from solid, phosphate buffer and water", "description": "0.95 g of disodium hydrogen phosphate dihydrate, 0.15 g of sodium dihydrogen phosphate dihydrate, and 51.1 g of water were put into a 100 mL plastic container and dissolved to produce a buffer containing no sodium chloride.\n3.4 g of gemcitabine hydrochloride was put into 5.8 g of this buffer and 8.1 g of water, and the mixture was stirred at 55°C for 2 hours. 5 mL of this supernatant was collected, and the filtrate obtained by filtration was used as a sample solution.\n0.95 g of disodium hydrogen phosphate dihydrate, 0.15 g of sodium dihydrogen phosphate dihydrate, 5.4 g of sodium chloride, and 67.7 g of water were put into a 100 mL plastic container and dissolved to produce a buffer containing sodium chloride.\n3.4 g of gemcitabine hydrochloride was put into 7.4 g of this buffer and 8.1 g of water, and the mixture was stirred at 55°C for 2 hours. 5 mL of this supernatant was collected, and the filtrate obtained by filtration was used as a sample solution.\nThis sample solution was quantified by HPLC at a detection wavelength of 272 nm, and the saturated solubility of 90 mg/mL in the presence of sodium chloride was obtained."}}, "note": "Structures can show the parent of a compound that is named as a salt."}
{"smiles": "Nc1ccn([C@@H]2O[C@H](CO)[C@@H](O)C2(F)F)c(=O)n1", "note": "[gemcitabine hydrochloride, Gemcitabine hydrochloride]", "values": [{"measurement": "time after which complete dissolution could not be confirmed", "setting": "[1]; Comparative Example 1: sodium chloride present, 200 rpm, downward flow, sodium hydroxide added", "result": "> 1", "unit": "h"}, {"measurement": "time after the temperature rise until gemcitabine hydrochloride was completely dissolved", "setting": "[1]; Example 1: no sodium chloride, 305 g scale, liquid 54°C, 400 rpm, upward flow", "result": "about 15 minutes"}, {"measurement": "solubility at 2 h", "setting": "[2]; in the absence of sodium chloride, stirred at 55°C for 2 hours (imitating Example 1)", "result": 156, "unit": "mg/mL"}, {"measurement": "solubility at 2 h", "setting": "[2]; in the presence of sodium chloride, stirred at 55°C for 2 hours (imitating Comparative Example 1)", "result": 90, "unit": "mg/mL"}]}
